# Laboratory results: US7754483B2, “Systems and methods for selection and maintenance of homogeneous and pluripotent human embryonic stem cells” (The Penn State Research Foundation, priority 2005, dated 2010)
# Key:
# hES cells [1] = test: Apoptosis detection by TUNEL assay; type: cell-based, human; conditions: Example 22, hESC colonies
# Description: Ceramide-induced apoptosis is assessed and visualized by TUNEL assay using the In Situ Cell Death Detection Kit, TMR Red (Roche Applied Bioscience). A TUNEL (Terminal deoxynucleotidyl Transferase Biotin-dUTP Nick End Labeling) assay measures and quantitates apoptosis by labeling DNA strand breaks in individual cells and detecting them by fluorescence microscopy. Human ES cells are cultured on glass cover-slips coated with 0.1% gelatin and mouse feeder cells. When the majority of the colonies reached the size of 0.5-0.7 mm (usually by day 5 of the culture), cells are treated with liposomal C6-ceramide (3 micromolar final) or ghost (no ceramide) for 12 hr. Cells are incubated for 12 hr because cells undergoing apoptosis are still attached to the cover-slip, making observation convenient. After 12 hr, cells become round and detached. At the end of the treatment period, cells are fixed with 4% formaldehyde (Tousimis) in PBS. TUNEL assay is performed using the In Situ Cell Death Detection Kit, TMR Red (Roche Applied Bioscience) following the manufacturer's instructions. Briefly, cells are permeabilized by incubating in 0.1% PBST for 2 min on ice. TUNEL reaction mixture is prepared freshly by mixing 50 microliters of enzyme solution (terminal deoxynucleotidyl transferase) with 450 microliters label solution (nucleotide mixture). […]
# [2] = tested on: hES cells maintained in feeder cells-free culture system; test: Liposomal ceramide treatment of hES cells in feeder cell-free culture (GFR-MATRIGEL); type: cell-based, human; conditions: five micromolar
# Text: NIH-registered hES cell lines, H1 (WA-01; 46XY) and H9 (WA-09; 46XX), are maintained on mouse embryonic fibroblasts (feeder cells) as recommended by the WiCell Research Institute (Madison, Wis.). Mouse feeder cells are irradiated (7500 Rad) and plated (2×10^4 cells/cm^2) on 6-well plates pre-coated with 0.1% gelatin. Feeder cells are allowed to attach and grow overnight prior to hES cell co-culture. Human ES cells are maintained with Dulbecco's Modified Eagle Medium/F12 (Gibco) supplemented with 20% KnockOut serum replacement (Gibco), 1% nonessential amino acids (Gibco), 2 mM GlutaMAX-1 (Gibco), 4 ng/ml basic human FGF (Invitrogen) and 0.1 mM beta-mercaptoethanol (Sigma). Cells are manually passaged following 10 min of collagenase IV incubation (1 mg/ml) at 1:5-1:10 split ratio every 5-7 days. For feeder cell-free culture, hES cells are plated and cultured on 6-well dishes coated with growth factor reduced (GFR)-MATRIGEL, diluted 1:24 in DMEM/F12. Human ES cells co-cultured with feeder cells are treated with collagenase IV for 10 min, collected manually and plated in a 1:3-1:5 split ratio (day=0). Cells are maintained with normal hES cell culture medium until treatment with ceramide (day=2). […]
# Light microscopy images of cells from 10 random fields are recorded using a Nikon TS-100 phase-contrast microscope and a Nikon CoolPix 5000 digital camera. […]
# hES cells, H1 or H9 = test: Liposomal ceramide treatment of hES cell colonies co-cultured with mouse feeder cells; type: cell-based
# Description: Mouse feeder cells are irradiated (7500 Rad) and plated (2×10^4 cells/cm^2) on 6-well plates pre-coated with 0.1% gelatin. Feeder cells are allowed to attach and grow overnight prior to hES cell co-culture. Human ES cells are maintained with Dulbecco's Modified Eagle Medium/F12 (Gibco) supplemented with 20% KnockOut serum replacement (Gibco), 1% nonessential amino acids (Gibco), 2 mM GlutaMAX-1 (Gibco), 4 ng/ml basic human FGF (Invitrogen) and 0.1 mM beta-mercaptoethanol (Sigma). Cells are manually passaged following 10 min of collagenase IV incubation (1 mg/ml) at 1:5-1:10 split ratio every 5-7 days. […] Human ES cells co-cultured with feeder cells are treated with collagenase IV for 10 min, collected manually and plated in a 1:3-1:5 split ratio (day=0). Cells are maintained with normal hES cell culture medium until treatment with ceramide (day=2).
# Increasing concentrations, 1, 3, 5, 10, 15 and 30 micromolar, of liposomal C6-ceramide are added to hES cell culture medium after a majority of the colonies had reached a size between 0.5-0.7 mm in diameter (day 5-6 of the culture). Relative volumes of “ghost liposome” containing no ceramide are used as a control. These ghost liposomes contained an equal mass of total lipids as ceramide formulations. […]
# hES cells [3] = test: In vitro differentiation of hES cells; type: cell-based, human; conditions: after elimination of ceramide-sensitive cells
# Text: Once separated from feeder cells and serum, hES cells typically spontaneously differentiate into progenitor cells and such cultures include ectoderm, mesoderm and endoderm progenitor cells. Similar to in vivo embryogenesis, further differentiation of these progenitor cells results in formation of terminally differentiated cell types illustratively including neurons, cardiomyocytes, endothelial, and pancreatic β-cells. The ability of hES cells to form all three embryonic lineages is one of the main criteria to determine their pluripotency. Early lineage differentiation is assessed using lineage specific markers. Exemplary lineage specific markers include nestin for ectodermal; α-fetoprotein for endodermal; and brachyury for mesodermal. Later stages of differentiation of these progenitor cells into specialized cells are assessed by assay of markers for more specialized cells representing three lineages, such as serotonergic neurons, insulin-positive cells, and cardiomyocytes.
# To assess in vitro differentiation, hES cells are isolated and transferred into non-coated culture plates where hES cells form embryoid bodies (EBs). For neuronal differentiation, these EBs are treated with a neurobasal medium (insulin-transferrin-selenium) to induce neuroprogenitor cell formation for seven days. Then, bFGF ([…]) is added to medium for another seven days. […]
substance,measurement,setting,value
ceramide,TUNEL: apoptosis after ceramide-conditioning,hES cells [1],"hESCs on the periphery of the colonies are, indeed, undergoing apoptosis"
same,effect on differentiation of hESCs without feeder cells,[2],inhibits differentiation and allows maintenance of undifferentiated stem cell growth
same,effect on peripheral cells of H9 hESC colonies,"hES cells, H1 or H9; 5 micromolar, 8 hrs, H9 (WA09), with MEF",eliminates cells located on the periphery of the hESC colonies
same,growth of central hESCs after addition of ceramide,"hES cells, H1 or H9; Example 22",continue their normal growth
same,differentiation capability of ceramide-selected hES cells,hES cells [3],"capable of differentiated into ectoderm, mesoderm or endoderm progenitor cells"
